Drawing on ChEMBL document CHEMBL2029284, “Synthesis and biological evaluation of ticagrelor derivatives as novel antiplatelet agents” (2012), this text covers inhibition in vivo and inhibition for 13 compounds.

Active and inactive are the calls of the source. The calls are words filed in the database; no cut-off is given here.

Broadly, the inhibition in vivo is the change of the read-out against control, counted positive when it falls.

The assay deals with Rattus norvegicus. Briefly: Antiplatelet activity in Sprague-Dawley rat assessed as ex-vivo inhibition of ADP-induced platelet aggregation at 5 mg/kg, po at 0.5 hrs by Born's method relative to vehicle-treated control. Format: functional.
Consider `CCCSc1nc(N[C@@H]2C[C@H]2c2ccc(F)c(F)c2)c2nnn([C@@H]3C[C@H](OC(=O)OCC(C)C)[C@@H](O)[C@H]3O)c2n1`, for which the inhibition in vivo at 5 mg/kg amounted to 13.2%.

Turning to `CCCSc1nc(N[C@@H]2C[C@H]2c2ccc(F)c(F)c2)c2nnn([C@@H]3C[C@H](OC(=O)C(C)(C)C)[C@@H](O)[C@H]3O)c2n1`, the inhibition result was “inactive”.

With `CCCSc1nc(N[C@@H]2C[C@H]2c2ccc(F)c(F)c2)c2nnn([C@@H]3C[C@H](OC(=O)CCC)[C@@H](O)[C@H]3O)c2n1`, the inhibition in vivo at 5 mg/kg came out at 28.5%.

`CCCSc1nc(N[C@@H]2C[C@H]2c2ccc(F)c(F)c2)c2nnn([C@@H]3C[C@H](OCCO)[C@@H](O)[C@H]3O)c2n1` [TICAGRELOR]: the inhibition in vivo at 5 mg/kg came to 66.3%.

`CCCSc1nc(N[C@@H]2C[C@H]2c2ccc(F)c(F)c2)c2nnn([C@@H]3C[C@H](OC(=O)c4ccccc4)[C@@H](O)[C@H]3O)c2n1`: the inhibition in vivo at 5 mg/kg worked out at 20.1%.

Regarding `CCCSc1nc(N[C@@H]2C[C@H]2c2ccc(F)c(F)c2)c2nnn([C@@H]3C[C@H](OCCOC(=O)C(C)(C)C)[C@@H](O)[C@H]3O)c2n1`, the inhibition in vivo at 5 mg/kg came out at 46.1%.

Turning to `CCCSc1nc(N[C@@H]2C[C@H]2c2ccc(F)c(F)c2)c2nnn([C@@H]3C[C@H](OC(=O)OCC)[C@@H](O)[C@H]3O)c2n1`, the inhibition in vivo at 5 mg/kg came to 42.5%.

As to `CCCSc1nc(N[C@@H]2C[C@H]2c2ccc(F)c(F)c2)c2nnn([C@@H]3C[C@H](OCCOC(=O)CCC)[C@@H](O)[C@H]3O)c2n1`, the inhibition entry is “inactive”.

Consider `CCCSc1nc(N[C@@H]2C[C@H]2c2ccc(F)c(F)c2)c2nnn([C@@H]3C[C@H](OC(=O)CC)[C@@H](O)[C@H]3O)c2n1`, for which the inhibition in vivo at 5 mg/kg was 44.5%.

Consider `CCCSc1nc(N[C@@H]2C[C@H]2c2ccc(F)c(F)c2)c2nnn([C@@H]3C[C@H](OCCOC(=O)OCC)[C@@H](O)[C@H]3O)c2n1`, for which the inhibition in vivo at 5 mg/kg is 47.7%.

For the compound `CCCSc1nc(N[C@@H]2C[C@H]2c2ccc(F)c(F)c2)c2nnn([C@@H]3C[C@H](O)[C@@H](O)[C@H]3O)c2n1`, the inhibition in vivo at 5 mg/kg was 45.7%.

For the compound `CCCSc1nc(N[C@@H]2C[C@H]2c2ccc(F)c(F)c2)c2nnn([C@@H]3C[C@H](OCCOC(=O)c4ccccc4)[C@@H](O)[C@H]3O)c2n1`, the inhibition entry was “inactive”.

`CCCSc1nc(N[C@@H]2C[C@H]2c2ccc(F)c(F)c2)c2nnn([C@@H]3C[C@H](OCCOC(=O)c4cccnc4)[C@@H](O)[C@H]3O)c2n1`: the inhibition entry is “inactive”.
